In patent US20110294843A1, “ADMINISTRATION SCHEME OF POLAR OPIOID METABOLITES FOR POST-OPERATIVE PAIN MANAGEMENT” (PAION UK Limited, priority 2008, published 2011):
Like-named read-outs stand apart in the source and are kept apart here.

Key:
[1] = tested on: patients following hip-replacement surgery; experiment: M6G001A study: post-operative analgesia following hip-replacement surgery; format: in vivo, human; conditions: all doses (10, 15, 20 mg/70 kg IV bolus followed by PCA)
Text: . This was a double-blind, randomised study. […]

[2] = Pharmacokinetics of M6G at single and multiple intravenous doses in healthy volunteers; format: in vivo, human; conditions: for MRT inf: read-out: MRT0-∞; for Vd: read-out: Vss
Description: Healthy male and female subjects were divided into two groups (A and B) with 12 in each. Group A received three single intravenous infusions of M6G over 5 mins at levels of 15, 30 and 45 mg/70 kg in random order, having taken 50 mg of naloxone orally 24 hrs beforehand. There was a seven-day wash-out period between each dose. Blood samples were taken pre-dose and at the following time-points: 3, 5, 15, 30 mins and 1, 2, 3, 4, 6, 12 and 24 hrs after the start of the infusion. Group, B received five, 15 mg/70 kg, intravenous infusions of M6G, each over five minutes, at 6-hourly intervals, having taken a 50 mg oral dose of naloxone 24 hrs before the first infusion. Blood samples were taken before each of the 5 doses, and at 3, 5, 15, 30 mins and at 1, 2, 3 and 4 hrs after the initiation of the 1st and 5th infusions and at 6 hrs after the 5th dose. Vital signs (supine blood pressure, pulse, respiratory rate and oral temperature), respiration rate, pulse oximetry and adverse events were monitored during the study. Plasma levels of M6G were measured using HPLC/ms/ms.

[3] = both sexes, human, plasma, intravenous, 15 mg/70 kg, multiple dose, Dose 1-15 mg, Geometric Mean
[4] = both sexes, human, plasma, intravenous, 15 mg/70 kg, multiple dose, Dose 1-15 mg, Mean
[5] = both sexes, human, plasma, intravenous, 15 mg/70 kg, multiple dose, Dose 1-15 mg, Median
[6] = both sexes, human, plasma, iv, 15 mg/70 kg, single 5 min iv infusion 15 mg, Geometric Mean
[7] = both sexes, human, plasma, iv, 15 mg/70 kg, single 5 min iv infusion 15 mg, Mean

## CN1CC[C@]23c4c5ccc(O)c4O[C@H]2[C@@H](OC2OC(C(=O)O)C(O)C(O)C2O)C=CC3[C@H]1C5 (stereo partly drawn) [M6G, (5α,6α)-7,8-Didehydro-4,5-epoxy-3-hydroxy-17-methylmorphinan-β-yl-β-D-glucopyranosiduronic acid]
[1]
  tolerability: well tolerated
[2]; 15 mg 6-hourly iv infusions
  average peak concentrations higher following Dose 5 than Dose 1: approximately 25%
[2]; 15, 30 and 45 mg single iv infusions
  dose proportionality of exposure (Cmax, AUC0-t, AUC0-∞): directly dose-proportional
[2]; both sexes, human, plasma, 15 mg/70 kg, 6 hours after each dose, 15 mg 6-hourly iv, read-out: trough levels
  concentration at 6 h: 63.9 ± 16.5 ng/mL
[2]; [3]
  clearance: 119 mL/min
  MRT inf: 2.07 h
  Vd: 14.7 L
[2]; both sexes, human, plasma, intravenous, 15 mg/70 kg, multiple dose, Dose 1-15 mg, Geometric Mean, read-out: AUC0-6
  AUC(0-t): 1910 ng·h/mL
[2]; both sexes, human, plasma, intravenous, 15 mg/70 kg, multiple dose, Dose 1-15 mg, Geometric Mean, read-out: AUC0-∞
  AUC(0-inf): 2110 ng·h/mL
[2]; both sexes, human, plasma, intravenous, 15 mg/70 kg, multiple dose, Dose 1-15 mg, Geometric Mean, read-out: Cmax
  Cmax: 1840 ng/mL
[2]; both sexes, human, plasma, intravenous, 15 mg/70 kg, multiple dose, Dose 1-15 mg, Geometric Mean, read-out: t1/2 (converted)
  half-life: 1.71 h
[2]; [4]
  clearance: 119 mL/min
  MRT inf: 2.1 h
  Vd: 14.8 L
[2]; both sexes, human, plasma, intravenous, 15 mg/70 kg, multiple dose, Dose 1-15 mg, Mean, read-out: AUC0-6
  AUC(0-t): 1920 ng·h/mL
[2]; both sexes, human, plasma, intravenous, 15 mg/70 kg, multiple dose, Dose 1-15 mg, Mean, read-out: AUC0-∞
  AUC(0-inf): 2130 ng·h/mL
[2]; both sexes, human, plasma, intravenous, 15 mg/70 kg, multiple dose, Dose 1-15 mg, Mean, read-out: Cmax
  Cmax: 1980 ng/mL
[2]; both sexes, human, plasma, intravenous, 15 mg/70 kg, multiple dose, Dose 1-15 mg, Mean, read-out: t1/2 (converted)
  half-life: 1.73 h
[2]; [5]
  clearance: 113 mL/min
  MRT inf: 2.17 h
  Vd: 14.2 L
[2]; both sexes, human, plasma, intravenous, 15 mg/70 kg, multiple dose, Dose 1-15 mg, Median, read-out: AUC0-6
  AUC(0-t): 1950 ng·h/mL
[2]; both sexes, human, plasma, intravenous, 15 mg/70 kg, multiple dose, Dose 1-15 mg, Median, read-out: AUC0-∞
  AUC(0-inf): 2210 ng·h/mL
[2]; both sexes, human, plasma, intravenous, 15 mg/70 kg, multiple dose, Dose 1-15 mg, Median, read-out: Cmax
  Cmax: 2090 ng/mL
[2]; both sexes, human, plasma, intravenous, 15 mg/70 kg, multiple dose, Dose 1-15 mg, Median, read-out: t1/2 (converted)
  half-life: 1.65 h
[2]; both sexes, human, plasma, intravenous, 15 mg/70 kg, multiple dose, Dose 5-15 mg, Geometric Mean, read-out: AUC24-30
  AUC: 2070 ng·h/mL
[2]; both sexes, human, plasma, intravenous, 15 mg/70 kg, multiple dose, Dose 5-15 mg, Geometric Mean, read-out: AUC24-∞
  AUC: 2170 ng·h/mL
[2]; both sexes, human, plasma, intravenous, 15 mg/70 kg, multiple dose, Dose 5-15 mg, Geometric Mean, read-out: Cmax
  Cmax: 2290 ng/mL
[2]; both sexes, human, plasma, intravenous, 15 mg/70 kg, multiple dose, Dose 5-15 mg, Geometric Mean
  Vd: 11.9 L
[2]; both sexes, human, plasma, intravenous, 15 mg/70 kg, multiple dose, Dose 5-15 mg, Geometric Mean, read-out: t1/2 (converted)
  half-life: 1.49 h
[2]; both sexes, human, plasma, intravenous, 15 mg/70 kg, multiple dose, Dose 5-15 mg, Mean, read-out: AUC24-30
  AUC: 2080 ng·h/mL
[2]; both sexes, human, plasma, intravenous, 15 mg/70 kg, multiple dose, Dose 5-15 mg, Mean, read-out: AUC24-∞
  AUC: 2180 ng·h/mL
[2]; both sexes, human, plasma, intravenous, 15 mg/70 kg, multiple dose, Dose 5-15 mg, Mean, read-out: Cmax
  Cmax: 2370 ng/mL
[2]; both sexes, human, plasma, intravenous, 15 mg/70 kg, multiple dose, Dose 5-15 mg, Mean
  Vd: 12 L
[2]; both sexes, human, plasma, intravenous, 15 mg/70 kg, multiple dose, Dose 5-15 mg, Mean, read-out: t1/2 (converted)
  half-life: 1.5 h
[2]; both sexes, human, plasma, intravenous, 15 mg/70 kg, multiple dose, Dose 5-15 mg, Median, read-out: AUC24-30
  AUC: 2090 ng·h/mL
[2]; both sexes, human, plasma, intravenous, 15 mg/70 kg, multiple dose, Dose 5-15 mg, Median, read-out: AUC24-∞
  AUC: 2210 ng·h/mL
[2]; both sexes, human, plasma, intravenous, 15 mg/70 kg, multiple dose, Dose 5-15 mg, Median, read-out: Cmax
  Cmax: 2370 ng/mL
[2]; both sexes, human, plasma, intravenous, 15 mg/70 kg, multiple dose, Dose 5-15 mg, Median
  Vd: 12.2 L
[2]; both sexes, human, plasma, intravenous, 15 mg/70 kg, multiple dose, Dose 5-15 mg, Median, read-out: t1/2 (converted)
  half-life: 1.56 h
[2]; both sexes, human, plasma, intravenous, 15 mg/70 kg, single 5 min infusion 15 mg/70 kg, read-out: AUC0-t, Geometric LS means
  AUC(0-t): 1760 ng·h/mL
[2]; both sexes, human, plasma, intravenous, 15 mg/70 kg, single 5 min infusion 15 mg/70 kg, read-out: AUC0-∞, Geometric LS means
  AUC(0-inf): 1880 ng·h/mL
[2]; both sexes, human, plasma, intravenous, 15 mg/70 kg, single 5 min infusion 15 mg/70 kg, read-out: Cmax, Geometric LS means
  Cmax: 1740 ng/mL
[2]; both sexes, human, plasma, intravenous, 30 mg/70 kg, single 5 min infusion 30 mg/70 kg, read-out: AUC0-t, Geometric LS means
  AUC(0-t): 3880 ng·h/mL
[2]; both sexes, human, plasma, intravenous, 30 mg/70 kg, single 5 min infusion 30 mg/70 kg, read-out: AUC0-∞, Geometric LS means
  AUC(0-inf): 3970 ng·h/mL
[2]; both sexes, human, plasma, intravenous, 30 mg/70 kg, single 5 min infusion 30 mg/70 kg, read-out: Cmax, Geometric LS means
  Cmax: 3700 ng/mL
[2]; both sexes, human, plasma, intravenous, 45 mg/70 kg, single 5 min infusion 45 mg/70 kg, read-out: AUC0-t, Geometric LS means
  AUC(0-t): 5750 ng·h/mL
[2]; both sexes, human, plasma, intravenous, 45 mg/70 kg, single 5 min infusion 45 mg/70 kg, read-out: AUC0-∞, Geometric LS means
  AUC(0-inf): 5850 ng·h/mL
[2]; both sexes, human, plasma, intravenous, 45 mg/70 kg, single 5 min infusion 45 mg/70 kg, read-out: Cmax, Geometric LS means
  Cmax: 5720 ng/mL
[2]; [6]
  clearance: 131 mL/min
  MRT inf: 1.64 h
  Vd: 12.9 L
[2]; both sexes, human, plasma, iv, 15 mg/70 kg, single 5 min iv infusion 15 mg, Geometric Mean, read-out: AUC0-∞
  AUC(0-inf): 1910 ng·h/mL
[2]; both sexes, human, plasma, iv, 15 mg/70 kg, single 5 min iv infusion 15 mg, Geometric Mean, read-out: Cmax
  Cmax: 1750 ng/mL
[2]; both sexes, human, plasma, iv, 15 mg/70 kg, single 5 min iv infusion 15 mg, Geometric Mean, read-out: t½ (converted)
  half-life: 1.46 h
[2]; [7]
  clearance: 133 mL/min
  MRT inf: 1.65 h
  Vd: 13 L
[2]; both sexes, human, plasma, iv, 15 mg/70 kg, single 5 min iv infusion 15 mg, Mean, read-out: AUC0-∞
  AUC(0-inf): 1930 ng·h/mL
[2]; both sexes, human, plasma, iv, 15 mg/70 kg, single 5 min iv infusion 15 mg, Mean, read-out: Cmax
  Cmax: 1860 ng/mL
